Source: PubChem BioAssay AID1845197 (Molecular Pharmacology Branch, DTP, NCI, 2023)
pIC50: −log10 of the molar value.

Test system: 349418-098-R tumor spheroid viability
Assay: Anticancer human tumor 349418-098-R patient-derived lung adenocarcinoma cell line growth inhibition
Conditions: spheroids with HUVEC and MSC; for pIC50: curve of first compound; for viability, T/C: stronger effect = lower value; for IC50: compound alone
Outline: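 Complex tumor spheroids combined malignant cells with endothelial cells and mesenchymal stem cells. DNA-damaging drugs and DNA repair inhibitors were tested alone and in combination, at half-log dilutions down from clinical Cmax (top 10 microM if Cmax unknown), 0.25% DMSO final.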
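Further: spheroids exposed to compound for 7 days before measurement.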
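Wherever viability, T/C is given: percent of vehicle control viability with 100% = DMSO-treated spheroids.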

Cc1sc2c(c1C)C(c1ccc(Cl)cc1)=NC(CC(=O)Nc1ccc(O)cc1)c1nnc(C)n1-2 (configuration not stated) + CC[C@@]1(O)C(=O)OCc2c1cc1n(c2=O)Cc2cc3c(CN(C)C)c(O)ccc3nc2-1
pIC50 (second compound 0.003 µM): 7.15 | pIC50 (second compound 0.00949 µM): 7.16 | pIC50 (second compound 0.03 µM): 7.38 | pIC50 (second compound 0.0949 µM): > 8.02 | pIC50 (second compound 0.3 µM): > 8.02 | viability, T/C (second compound 0.003 µM, first compound 0.00949 µM): 96.2% | viability, T/C (second compound 0.003 µM, first compound 0.03 µM): 83.1% | viability, T/C (second compound 0.003 µM, first compound 0.0949 µM): 39.1% | viability, T/C (second compound 0.003 µM, first compound 0.3 µM): 7.85% | viability, T/C (second compound 0.003 µM, first compound 0.949 µM): 0.87% | viability, T/C (second compound 0.003 µM, first compound 3 µM): 0.47% | viability, T/C (second compound 0.00949 µM, first compound 0.00949 µM): 92.4% | viability, T/C (second compound 0.00949 µM, first compound 0.03 µM): 78.1% | viability, T/C (second compound 0.00949 µM, first compound 0.0949 µM): 40% | viability, T/C (second compound 0.00949 µM, first compound 0.3 µM): 6.43% | viability, T/C (second compound 0.00949 µM, first compound 0.949 µM): 0.61% | viability, T/C (second compound 0.00949 µM, first compound 3 µM): 0.48% | viability, T/C (second compound 0.03 µM, first compound 0.00949 µM): 77.9% | viability, T/C (second compound 0.03 µM, first compound 0.03 µM): 61.7% | viability, T/C (second compound 0.03 µM, first compound 0.0949 µM): 20.9% | viability, T/C (second compound 0.03 µM, first compound 0.3 µM): 5.67% | viability, T/C (second compound 0.03 µM, first compound 0.949 µM): 0.64% | viability, T/C (second compound 0.03 µM, first compound 3 µM): 0.38% | viability, T/C (second compound 0.0949 µM, first compound 0.00949 µM): 12.6% | viability, T/C (second compound 0.0949 µM, first compound 0.03 µM): 16.2% | viability, T/C (second compound 0.0949 µM, first compound 0.0949 µM): 4.16% | viability, T/C (second compound 0.0949 µM, first compound 0.3 µM): 1.07% | viability, T/C (second compound 0.0949 µM, first compound 0.949 µM): 0.3% | viability, T/C (second compound 0.0949 µM, first compound 3 µM): 0.35% | viability, T/C (second compound 0.3 µM, first compound 0.00949 µM): 2.78% | viability, T/C (second compound 0.3 µM, first compound 0.03 µM): 2.56% | viability, T/C (second compound 0.3 µM, first compound 0.0949 µM): 1.45% | viability, T/C (second compound 0.3 µM, first compound 0.3 µM): 0.63% | viability, T/C (second compound 0.3 µM, first compound 0.949 µM): 0.55% | viability, T/C (second compound 0.3 µM, first compound 3 µM): 0.39%

Cc1cc(C)c(CNC(=O)c2cc(-c3ccc(CN4CCOCC4)cc3)cc3c2cnn3C2CCCC2)c(=O)[nH]1 + CC[C@@]1(O)C(=O)OCc2c1cc1n(c2=O)Cc2cc3c(CN(C)C)c(O)ccc3nc2-1
pIC50 (second compound 0.003 µM): 5.18 | pIC50 (second compound 0.00949 µM): 5.24 | pIC50 (second compound 0.03 µM): 5.99 | pIC50 (second compound 0.0949 µM): > 7.50 | pIC50 (second compound 0.3 µM): > 7.50 | viability, T/C (second compound 0.003 µM, first compound 0.0316 µM): 98.5% | viability, T/C (second compound 0.003 µM, first compound 0.1 µM): 97.9% | viability, T/C (second compound 0.003 µM, first compound 0.316 µM): 94.8% | viability, T/C (second compound 0.003 µM, first compound 1 µM): 92.6% | viability, T/C (second compound 0.003 µM, first compound 3.16 µM): 89.3% | viability, T/C (second compound 0.003 µM, first compound 10 µM): 27.5% | viability, T/C (second compound 0.00949 µM, first compound 0.0316 µM): 93.4% | viability, T/C (second compound 0.00949 µM, first compound 0.1 µM): 95.7% | viability, T/C (second compound 0.00949 µM, first compound 0.316 µM): 88.9% | viability, T/C (second compound 0.00949 µM, first compound 1 µM): 84.4% | viability, T/C (second compound 0.00949 µM, first compound 3.16 µM): 71.9% | viability, T/C (second compound 0.00949 µM, first compound 10 µM): 31.4% | viability, T/C (second compound 0.03 µM, first compound 0.0316 µM): 73.4% | viability, T/C (second compound 0.03 µM, first compound 0.1 µM): 75.2% | viability, T/C (second compound 0.03 µM, first compound 0.316 µM): 62.4% | viability, T/C (second compound 0.03 µM, first compound 1 µM): 52.7% | viability, T/C (second compound 0.03 µM, first compound 3.16 µM): 26.4% | viability, T/C (second compound 0.03 µM, first compound 10 µM): 8.63% | viability, T/C (second compound 0.0949 µM, first compound 0.0316 µM): 19.2% | viability, T/C (second compound 0.0949 µM, first compound 0.1 µM): 14.8% | viability, T/C (second compound 0.0949 µM, first compound 0.316 µM): 8.67% | viability, T/C (second compound 0.0949 µM, first compound 1 µM): 5.66% | viability, T/C (second compound 0.0949 µM, first compound 3.16 µM): 5.2% | viability, T/C (second compound 0.0949 µM, first compound 10 µM): 4.15% | viability, T/C (second compound 0.3 µM, first compound 0.0316 µM): 2.97% | viability, T/C (second compound 0.3 µM, first compound 0.1 µM): 3.59% | viability, T/C (second compound 0.3 µM, first compound 0.316 µM): 3.1% | viability, T/C (second compound 0.3 µM, first compound 1 µM): 3.16% | viability, T/C (second compound 0.3 µM, first compound 3.16 µM): 3.27% | viability, T/C (second compound 0.3 µM, first compound 10 µM): 3.11%

CC[C@@]1(O)C(=O)OCc2c1cc1n(c2=O)Cc2cc3c(CN(C)C)c(O)ccc3nc2-1
viability, T/C (compound 0.003 µM): 99.8% [middle of 10 runs] | viability, T/C (compound 0.00949 µM): 97.5% [middle of 10 runs] | viability, T/C (compound 0.03 µM): 77.6% [middle of 10 runs] | viability, T/C (compound 0.0949 µM): 19.6% [middle of 10 runs] | viability, T/C (compound 0.3 µM): 4.75% [middle of 10 runs] | IC50 (run of 10/17/2019): 58.3 nM [middle of 5 runs] | IC50 (run of 10/25/2019): 43.3 nM [middle of 5 runs]
